Source: patent US20100261767A1, “OXADIAZOLE DERIVATIVES FOR USE AS S1P1 AGONISTS IN THE TREATMENT OF AUTOIMMUNE AND INFLAMMATORY DISORDERS” (priority 2007, published 2010)
pEC50: −log10 of the molar value. Where a name gives a salt, the structure may show the parent alone.

Experiments:
human S1P1 receptor = biological target: T1, human S1P1 receptor (Homo sapiens, UniProt P21453); test: S1P1 GTPγS Assay; assay type: biochemical; conditions: human S1P1 rat hepatoma membranes, agonist
T1 construct: expressed in transfected cells; membranes
Experimental: Membrane Preparation for S1P1 GTPγS Assay
For membrane preparations all steps were performed at 4° C. Rat hepatoma cells stably expressing the human S1P1 receptor or Rat Basophilic Leukaemia cells (RBL) stably expressing human S1P3 receptor were grown to 80% confluency before being harvested into 10 ml Phospho-Buffered Saline (PBS) and centrifuged at 1200 rpm for 5 minutes. After removal of the supernatant, the pellet was re-suspended and cells were homogenised within a glass Waring blender for 2 bursts of 15 secs in 200 mls of buffer (50 mM HEPES, 1 mM leupeptin, 25 μg/ml bacitracin, 1 mM EDTA, 1 mM PMSF, 2 μM pepstatin A). The blender was plunged into ice for 5 mins after the first burst and 10-40 mins after the final burst to allow foam to dissipate. […]
After 30 minutes pre-coupling on ice the bead and membrane suspension was dispensed into a white Greiner polypropylene LV384-well plate (5 μl/well), containing 0.1 μl of the compound. […] The final assay cocktail (10.1 μl) was then centrifuged at 1000 rpm for 5 minutes then read immediately on a Viewlux reader. […]
(§1) After 30 minutes precoupling on ice, the bead and membrane suspension was dispensed into white Greiner polypropylene LV 384-well plates (5 μl/well), containing 0.1 μl of compound. […] The final assay cocktail (10.1 μl) was then sealed, spun on a centrifuge, then read immediately on a Viewlux instrument.

human S1P3 receptor = biological target: T2, human S1P3 receptor (Homo sapiens, UniProt Q99500); test: S1P3 GTPγS Assay; assay type: biochemical; conditions: S1P3 RBL-2H3 membranes, agonist
T2 construct: expressed in transfected cells; membranes
Experimental: For membrane preparations all steps were performed at 4° C. Rat hepatoma cells stably expressing the human S1P1 receptor or Rat Basophilic Leukaemia cells (RBL) stably expressing human S1P3 receptor were grown to 80% confluency before being harvested into 10 ml Phospho-Buffered Saline (PBS) and centrifuged at 1200 rpm for 5 minutes. After removal of the supernatant, the pellet was re-suspended and cells were homogenised within a glass Waring blender for 2 bursts of 15 secs in 200 mls of buffer (50 mM HEPES, 1 mM leupeptin, 25 μg/ml bacitracin, 1 mM EDTA, 1 mM PMSF, 2 μM pepstatin A). The blender was plunged into ice for 5 mins after the first burst and 10-40 mins after the final burst to allow foam to dissipate. The material was then spun at 500 g for 20 mins and the supernatant spun for 36 mins at 48,000 g. The pellet was resuspended in the same buffer as above but without PMSF and pepstatin A. The material was then forced through a 0.6 mm needle, made up to the required volume, (usually ×4 the volume of the original cell pellet), aliquoted and stored frozen at −80° C.
S1P3 membranes from rat basophilic leukaemia cells (RBL-2H3) (1.5 μg/well) were adhered to WGA-coated SPA beads (0.125 mg/well) in assay buffer (HEPES 20 mM, MgCl2 3 mM, NaCl 100 mM and pH adjusted to 7.4 using KOH 5M), GDP 10 μM FAC and saponin 90 μg/ml FAC was also added).
After 30 minutes pre-coupling on ice the bead and membrane suspension was dispensed into a white Greiner polypropylene LV384-well plate (5 μl/well), containing 0.1 μl of the compound. 5 μl/well [^35S]-GTPγS (0.5 nM final radioligand conc) made up in assay buffer was then added to agonist plates. The final assay cocktail (10.1 μl) was centrifuged at 1000 rpm for 5 minutes then read immediately on a Viewlux reader. […]
as §1

T2 sequence (Q99500 whole entry): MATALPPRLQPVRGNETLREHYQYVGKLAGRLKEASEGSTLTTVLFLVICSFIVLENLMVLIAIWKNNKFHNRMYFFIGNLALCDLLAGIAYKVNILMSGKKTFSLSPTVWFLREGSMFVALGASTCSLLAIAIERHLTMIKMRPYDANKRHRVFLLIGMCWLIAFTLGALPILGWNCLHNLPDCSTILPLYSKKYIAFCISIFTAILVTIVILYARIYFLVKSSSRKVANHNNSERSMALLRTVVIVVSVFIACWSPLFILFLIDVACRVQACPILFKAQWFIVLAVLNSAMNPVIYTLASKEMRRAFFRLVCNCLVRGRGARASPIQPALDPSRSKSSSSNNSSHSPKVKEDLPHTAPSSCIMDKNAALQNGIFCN
T1 sequence (P21453 whole entry): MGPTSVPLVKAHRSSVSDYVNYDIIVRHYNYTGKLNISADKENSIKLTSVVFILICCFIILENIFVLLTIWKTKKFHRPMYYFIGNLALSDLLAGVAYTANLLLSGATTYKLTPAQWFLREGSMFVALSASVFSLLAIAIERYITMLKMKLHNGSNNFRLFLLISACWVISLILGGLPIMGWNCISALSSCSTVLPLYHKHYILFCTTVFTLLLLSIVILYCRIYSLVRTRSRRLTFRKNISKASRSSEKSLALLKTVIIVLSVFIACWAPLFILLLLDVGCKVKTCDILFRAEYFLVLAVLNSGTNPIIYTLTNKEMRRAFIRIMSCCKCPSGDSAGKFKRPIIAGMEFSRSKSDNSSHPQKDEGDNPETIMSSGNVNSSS

| pEC50 (human S1P1 receptor) | pEC50 (human S1P3 receptor) | SMILES |
| --- | --- | --- |
| > 8.00 | < 5.00 | CC(C)Oc1ccc(-c2nc(-c3cccc4c3CNC4)no2)cc1C#N [Example 1, 5-[3-(2,3-Dihydro-1H-isoindol-4-yl)-1,2,4-oxadiazol-5-yl]-2-[(1-methylethyl)oxy]benzonitrile hydrochloride] |
| > 8.00 | < 5.00 | CC(C)Oc1ccc(-c2nc(-c3cccc4c3CNC4)no2)cc1Cl [Example 2, 4-(5-{3-Chloro-4-[(1-methylethyl)oxy]phenyl}-1,2,4-oxadiazol-3-yl)-2,3-dihydro-1H-isoindole] |
|  | < 5.00 | CC(C)Oc1ccc(-c2nc(-c3cccc4c3CN(CCCC(=O)O)C4)no2)cc1C#N [Example 5, 4-[4-(5-{3-cyano-4-[(1-methylethyl)oxy]phenyl}-1,2,4-oxadiazol-3-yl)-1,3-dihydro-2H-isoindol-2-yl]butanoic acid] |
